In patent US11840489B2, “Symbiosis-promoting agent and method for promoting symbiosis of arbuscular mycorrhizal fungi” (TOYOTA JIDOSHA KABUSHIKI KAISHA, priority 2020, dated 2023):

Key:
[1] = system: arbuscular mycorrhizal fungi; test: Infection rate of arbuscular mycorrhizal fungi in chives, soil with cystathionine, GSH or Phoron (Comparative Example 2); format: in vivo, Rhizophagus irregularis DAOM197198; conditions: 500 spores, 1 month, FIG. 6; for infection rate (amount of hyphae per root length): 0.1 or 1 mM in soil, vs control with 500 spores
Method: (§1) Specifically, monocotyledonous plants of Allium (chives; Allium schoenoprasum) were infected with arbuscular mycorrhizal fungi (Rhizophagus irregularis DAOM197198), and the infection rate (%) of the mycorrhizal fungi that had invaded inside the roots was determined.
(§2) Plants were infected with arbuscular mycorrhizal fungi in the same manner as in Example 2. That is, the medium (one-tenth of the amount, Hoagland No. 2 basal salt mixture (SIGMA), 0.1 mM KNO3) was added to fertilizer-free soil. As control samples, sterilized chive seeds were directly seeded in soil supplemented with spores of arbuscular mycorrhizal fungi (4,000 spores) and in soil supplemented with the spores and GSSG (10 or 100 microM). The plants were allowed to grow at 23 degrees C. with 16-hour light and 8-hour dark cycles for 4 weeks. Thereafter, chives were dug out, the arbuscular mycorrhizal fungi inside the root were stained with ink, and the infection rate of the mycorrhizal fungi (the amount of hyphae per root length (%)) was determined with observation under a microscope.
In the same manner as in Example 3, the medium (one-tenth of the amount, Hoagland No. 2 basal salt mixture (SIGMA), 0.1 mM KNO3) was added to fertilizer-free soil. As control samples, sterilized chive seeds were directly seeded in soil supplemented with spores of arbuscular mycorrhizal fungi (500 spores and 1,000 spores) and in soil supplemented with the 500 spores, cystathionine (0.1 or 1 mM), GSH (0.1 or 1 mM), and Phoron (0.1 or 1 mM). The plants were allowed to grow at 23 degrees C. with 16-hour light and 8-hour dark cycles for 1 month. Thereafter, chives were dug out, the arbuscular mycorrhizal fungi inside the root were stained with ink, and the infection potential of the mycorrhizal fungi (the amount of hyphae per root length (%)) was determined with observation under a microscope.

[2] = system: arbuscular mycorrhizal fungi (Rhizophagus irregularis DAOM197198); test: Infection rate of arbuscular mycorrhizal fungi in roots of chives (Allium schoenoprasum) grown in supplemented soil (Example 3); format: in vivo; conditions: chives, 4,000 spores, 10 or 100 microM in soil, 4 weeks; vs control; Dunnett's test, n=8; FIG. 3
Method: as §1, §2

[3] = system: arbuscular mycorrhizal fungi (Rhizophagus irregularis DAOM197198); test: Infection rate of arbuscular mycorrhizal fungi in roots of Lotus japonicus grown in supplemented soil (Example 2); format: in vivo; conditions: Lotus japonicus, 4,000 spores, 4 weeks, FIG. 2
Method: Specifically, plants of Leguminosae (Lotus japonicus) were infected with arbuscular mycorrhizal fungi (Rhizophagus irregularis DAOM197198) in soil supplemented with GSSG, and the infection rate (%) of the mycorrhizal fungi invaded inside the roots was determined.
At the outset, the medium (one-tenth of the amount, Hoagland No. 2 basal salt mixture (SIGMA), 0.1 mM KNO3) was added to fertilizer-free soil. Also, control soil supplemented with spores of arbuscular mycorrhizal fungi (4,000 or 6,000 spores) and soil supplemented with spores of arbuscular mycorrhizal fungi (4,000 spores) and GSSG (10 or 100 microM) were prepared. Subsequently, seeds of Lotus japonicus (3 days after seeding) that had germinated in agar medium were transplanted therein. The plants were allowed to grow at 23 degrees C. with 16-hour light and 8-hour dark cycles for 4 weeks. Thereafter, Lotus japonicus was dug out, the arbuscular mycorrhizal fungi inside the root were stained with ink, and the infection rate of the mycorrhizal fungi (the amount of hyphae per root length (%)) was determined with observation under a microscope.

[4] = system: arbuscular mycorrhizal fungi (Rhizophagus irregularis DAOM197198); test: Hyphal elongation of arbuscular mycorrhizal fungi in modified M medium, 4 weeks (Example 1); format: cell-based; conditions: 10 microM or 100 microM in medium, 30 degrees C., vs control without addition, p less than 0.05, Dunnett's test, n 16-19, FIG. 1
[5] = system: root nodule bacteria (Mesorhizobium loti); test: Root nodule bacterial infection of Lotus japonicus: root nodules and infection hyphae (Comparative Example 1); format: in vivo; conditions: 10 or 100 microM, FIG. 5
Method: In this comparative example, root nodule bacteria from Lotus japonicus plants (Mesorhizobium loti, a transformant comprising a fluorescent protein (DsRED) introduced thereinto) were used. Vermiculite was supplemented with B&D medium (Broughton and Dilworth, 1971), KNO3 (final concentration: 0.1 mM), root nodule bacteria, and oxidized glutathione at 0, 10, or 100 microM to prepare media. The resulting media (50 ml) were added to 300 ml of fertilizer-free soil (vermiculite) in a pot, and young plants of Lotus japonicus 3 days after seeding were planted therein. The infection hyphae that serve as the routes of infection with root nodule bacteria formed in the root hair cells of Lotus japonicus and the root nodules that are symbiotic organs formed in the roots of Lotus japonicus were examined 1 week and 2 weeks after the growth.

[6] = system: arbuscular mycorrhizal fungi; test: Infection rate of arbuscular mycorrhizal fungi in chives, soil supplemented with cystathionine (Example 4); format: in vivo; conditions: 1 mM in soil, 4 weeks, vs cystathionine-free control, FIG. 4
Method: Chives were used in this example. The medium (one-tenth of the amount, Hoagland No. 2 basal salt mixture (SIGMA), 0.1 mM KNO3) was added to fertilizer-free soil. As control samples, sterilized chive seeds were directly seeded in soil supplemented with spores of arbuscular mycorrhizal fungi (500 or 1,000 spores) and in soil supplemented with the spores and cystathionine (0.1 or 1 mM). The plants were allowed to grow at 23 degrees C. with 16-hour light and 8-hour dark cycles for 4 weeks. Thereafter, chives were dug out, the arbuscular mycorrhizal fungi inside the root were stained with ink, and the infection rate of the mycorrhizal fungi (the amount of hyphae per root length (%)) was determined with observation under a microscope.

[7] = system: arbuscular mycorrhizal fungi (Rhizophagus irregularis DAOM197198); conditions: 30 degrees C., 1 week, FIG. 7
Method: The modified M medium (0.3% gerlite, Becard and Fortin, 1988 New phytologist, 108, 211-218) was supplemented with oxidized glutathione (10 microM or 100 microM), spores of arbuscular mycorrhizal fungi (Rhizophagus irregularis DAOM197198) were inoculated, and culture was conducted at 30 degrees C. for 4 weeks. For comparison, arbuscular mycorrhizal fungi were cultured in the same manner, except that oxidized glutathione was not added. The number of hyphae elongated outside of the circle (a radius of 7.5 mm) centered on the inoculated portion of the medium was counted, and the extent of elongation was determined based on the number of spores.
In the same manner as in Example 1, reduced glutathione (10 mM) was added to the modified M medium (0.3% gerlite), spores of arbuscular mycorrhizal fungi (Rhizophagus irregularis DAOM197198) were inoculated therein, and culture was conducted at 30 degrees C. for 1 week. For comparison, arbuscular mycorrhizal fungi were cultured in the same manner, except that reduced glutathione was not added.

With `CC(C)=CC(=O)C=C(C)C` [Phoron, reference compound] the “infection rate (amount of hyphae per root length)” value [1] was “inhibited”.
With oxidized glutathione the “infection rate of the mycorrhizal fungi (amount of hyphae per root length)” value [2] was “significantly enhanced”, the “infection rate compared with control inoculated with 1.5 times greater amount of spores (6,000 spores)” value ([3]; 10 microM) was “equivalent” and the “infection rate of the mycorrhizal fungi (amount of hyphae per root length)” value ([3]; 10 or 100 microM in soil, vs GSSG-free control (4,000 spores), Dunnett's test, n=8) was “significantly enhanced”. The “infection rate compared with control inoculated with 1.5 times greater amount of spores (6,000 spores)” value ([3]; 100 microM) was “enhance”, the “hyphal elongation (number of hyphae elongated outside circle of radius 7.5 mm, per number of spores)” value [4] was “significant effects of promoting hyphal elongation” and the “formation of infection hyphae” value ([5]; 1 week after the growth) was “significant inhibitory effects”. For the same compound, the “formation of root nodules” value ([5]; 1 week after the growth) was “significant inhibitory effects”, the “inhibitory effects on formation of infection hyphae” value ([5]; 2 weeks after the growth) was “not observed” and the “inhibitory effects on formation of root nodules” value ([5]; 2 weeks after the growth) was “not observed”.
With `NC(CCSCC(N)C(=O)O)C(=O)O` (centres unmarked) [cystathionine, 2-amino-4-(2-amino-2-carboxy-ethyl)thio-butanoic acid] the “infection rate of the mycorrhizal fungi (amount of hyphae per root length)” value [6] was “significantly enhanced”, the “infection rate compared with the sample supplemented with 1,000 spores” value ([1]; 1 mM) was “equivalent” and the “infection rate (amount of hyphae per root length)” value [1] was “enhanced”.
In the case of `N[C@@H](CCC(=O)N[C@@H](CS)C(=O)NCC(=O)O)C(=O)O` [reduced glutathione, N—(N-gamma-L-glutamyl-L-cysteinyl)glycine], the “infection rate (amount of hyphae per root length)” value [1] is reported as “inhibited”, the “hyphal elongation of arbuscular mycorrhizal fungi at high concentration” value ([7]; 10 mM) is reported as “no hyphal elongation was observed” and the spore survival ([7]; 10 mM) is reported as “died”. The “hyphal elongation of arbuscular mycorrhizal fungi” value ([7]; medium supplemented with reduced glutathione, vs no addition) was “deteriorated hyphal elongation”.
